Assay results published in ChEMBL document CHEMBL5154775, “Oxetane Promise Delivered: Discovery of Long-Acting IDO1 Inhibitors Suitable for Q3W Oral or Parenteral Dosing” (J Med Chem, 2022).
Converted amounts (≈) assume the structure as drawn.

What was measured:
[1] = Solubility of compound at pH 2; format: physicochemical; conditions: buffer
[2] = Solubility of compound at pH 7; format: physicochemical; conditions: buffer
[3] = Unbound intrinsic clearance in human hepatocytes; format: ADME, cell-based, Hepatocyte
[4] = Unbound intrinsic clearance in rat hepatocytes; format: ADME, cell-based, Hepatocyte
[5] = biological target: T1, Indoleamine 2,3-dioxygenase 1 (Homo sapiens, UniProt P14902); test: Inhibition of IDO1 in IFN gamma-stimulated human HeLa cells measured after 48 hrs by fluorescence based microplate reader assay; format: cell-based
Target sequence in this assay (P14902 whole entry): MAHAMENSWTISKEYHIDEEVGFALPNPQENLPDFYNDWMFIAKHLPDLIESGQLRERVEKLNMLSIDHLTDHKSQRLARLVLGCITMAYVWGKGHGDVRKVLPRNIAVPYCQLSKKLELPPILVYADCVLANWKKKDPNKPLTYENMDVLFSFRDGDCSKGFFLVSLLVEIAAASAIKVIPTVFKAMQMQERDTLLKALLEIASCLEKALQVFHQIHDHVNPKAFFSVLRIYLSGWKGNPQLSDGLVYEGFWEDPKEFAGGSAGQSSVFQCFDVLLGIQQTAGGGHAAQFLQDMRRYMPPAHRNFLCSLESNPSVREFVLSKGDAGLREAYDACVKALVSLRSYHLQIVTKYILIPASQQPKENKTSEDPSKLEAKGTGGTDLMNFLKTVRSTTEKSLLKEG

[6] = biological target: Voltage-gated inwardly rectifying potassium channel KCNH2 (Homo sapiens, UniProt Q12809); test: Inhibition of MK-499 binding to hERG; format: toxicity
Cytochrome P450 2C9 = Cytochrome P450 2C9 (Homo sapiens, UniProt P11712); test: Inhibition of CYP2C9 (unknown origin); format: ADME
[7] = Half life in rat; format: ADME; conditions: in vivo
[8] = Volume of distribution at steady state in rat; format: ADME; conditions: in vivo
[9] = MRT in rat; format: ADME; conditions: in vivo
[10] = biological target: T1, Indoleamine 2,3-dioxygenase 1; test: Inhibition of IDO1 in IFNgamma/LPS stimulated human whole blood assessed as unbound concentration using kynurenine/tryptophan as substrate preincubated with compound for 15 mins followed by incubation with IFNgamma/LPS for 18 hrs by LC/MS/MS analysis; format: tissue-based
Target sequence in this assay (P14902 whole entry): as above

[11] = biological target: T1, Indoleamine 2,3-dioxygenase 1; test: Displacement of [3H] labeled-N-(4-Fluorophenyl)-3-(4-(4-(2-hydroxypropan-2-yl)-6-(trifluoromethyl)pyridin-3-yl)phenyl)oxetane-3-carboxamide from human IDO1 assessed as inhibition constant by radioligand binding assay
Target sequence in this assay (P14902 whole entry): as above

[12] = biological target: T1, Indoleamine 2,3-dioxygenase 1; test: Displacement of [3H] labeled-N-(4-Fluorophenyl)-3-(4-(4-(2-hydroxypropan-2-yl)-6-(trifluoromethyl)pyridin-3-yl)phenyl)oxetane-3-carboxamide from human IDO1 assessed as dissociation rate constant by radioligand binding assay
Target sequence in this assay (P14902 whole entry, looked up): as the sequence (P14902 whole entry) above

[13] = biological target: T1, Indoleamine 2,3-dioxygenase 1; test: Displacement of [3H] labeled-N-(4-Fluorophenyl)-3-(4-(4-(2-hydroxypropan-2-yl)-6-(trifluoromethyl)pyridin-3-yl)phenyl)oxetane-3-carboxamide from human IDO1 assessed as dissociation half life by radioligand binding assay
Target sequence in this assay (P14902 whole entry, looked up): as the sequence (P14902 whole entry) above

[14] = biological target: Indoleamine 2,3-dioxygenase 1 (Mus musculus) (UniProt P28776); test: In vivo inhibition of human IDO1 knock-in mouse CT26 cells translated in single oral gavage dosed CD1 mouse tumor model assessed as reduction in kynurenine level in tumor measured upto 24 hrs; format: functional, organism-based; conditions: dose 0.3-30 mg/kg, DDE = dose-dependent effect
[15] = biological target: Indoleamine 2,3-dioxygenase 1 (Mus musculus) (UniProt P28776); test: In vivo inhibition of human IDO1 knock-in mouse CT26 cells translated in single oral gavage dosed CD1 mouse tumor model assessed as reduction in kynurenine level in plasma measured upto 24 hrs; format: functional, organism-based; conditions: dose 0.3-30 mg/kg, DDE = dose-dependent effect
[16] = Inhibition of potassium channel (unknown origin) current; set-up: species or system Homo sapiens
[17] = Inhibition of Sodium channel (unknown origin) current; set-up: species or system Homo sapiens
[18] = Inhibition of Calcium channel (unknown origin) current; set-up: species or system Homo sapiens
[19] = Half life in Wistar Han rat at 1 mg/kg, po or 0.5 mg/kg, iv by LC-MS/MS analysis; format: ADME, organism-based; conditions: in vivo
[20] = Half life in dog at 0.5 mg/kg, po or 0.25 mg/kg, iv by LC-MS/MS analysis; format: ADME, organism-based, Canis lupus familiaris; conditions: in vivo
[21] = Oral bioavailability in Wistar Han rat using spray-dried dispersion at 1 mg/kg by LC-MS/MS analysis; format: ADME, organism-based; conditions: in vivo
[22] = Oral bioavailability in dog using spray-dried dispersion at 0.5 mg/kg by LC-MS/MS analysis; format: ADME, organism-based, Canis lupus familiaris; conditions: in vivo
[23] = Oral bioavailability in Wistar Han rat using crystalline form of sample at 1 mg/kg by LC-MS/MS analysis; format: ADME, organism-based; conditions: in vivo
[24] = Oral bioavailability in dog using crystalline at 0.5 mg/kg by LC-MS/MS analysis; format: ADME, organism-based, Canis lupus familiaris; conditions: in vivo
[25] = biological target: T1, Indoleamine 2,3-dioxygenase 1; test: Displacement of [3H] labeled-N-(4-Fluorophenyl)-3-(4-(4-(2-hydroxypropan-2-yl)-6-(trifluoromethyl)pyridin-3-yl)phenyl)oxetane-3-carboxamide from human IDO1 assessed as dissociation constant by radioligand binding assay
Target sequence in this assay (P14902 whole entry): as above

Chain of Voltage-gated inwardly rectifying potassium channel KCNH2 (Q12809 whole entry): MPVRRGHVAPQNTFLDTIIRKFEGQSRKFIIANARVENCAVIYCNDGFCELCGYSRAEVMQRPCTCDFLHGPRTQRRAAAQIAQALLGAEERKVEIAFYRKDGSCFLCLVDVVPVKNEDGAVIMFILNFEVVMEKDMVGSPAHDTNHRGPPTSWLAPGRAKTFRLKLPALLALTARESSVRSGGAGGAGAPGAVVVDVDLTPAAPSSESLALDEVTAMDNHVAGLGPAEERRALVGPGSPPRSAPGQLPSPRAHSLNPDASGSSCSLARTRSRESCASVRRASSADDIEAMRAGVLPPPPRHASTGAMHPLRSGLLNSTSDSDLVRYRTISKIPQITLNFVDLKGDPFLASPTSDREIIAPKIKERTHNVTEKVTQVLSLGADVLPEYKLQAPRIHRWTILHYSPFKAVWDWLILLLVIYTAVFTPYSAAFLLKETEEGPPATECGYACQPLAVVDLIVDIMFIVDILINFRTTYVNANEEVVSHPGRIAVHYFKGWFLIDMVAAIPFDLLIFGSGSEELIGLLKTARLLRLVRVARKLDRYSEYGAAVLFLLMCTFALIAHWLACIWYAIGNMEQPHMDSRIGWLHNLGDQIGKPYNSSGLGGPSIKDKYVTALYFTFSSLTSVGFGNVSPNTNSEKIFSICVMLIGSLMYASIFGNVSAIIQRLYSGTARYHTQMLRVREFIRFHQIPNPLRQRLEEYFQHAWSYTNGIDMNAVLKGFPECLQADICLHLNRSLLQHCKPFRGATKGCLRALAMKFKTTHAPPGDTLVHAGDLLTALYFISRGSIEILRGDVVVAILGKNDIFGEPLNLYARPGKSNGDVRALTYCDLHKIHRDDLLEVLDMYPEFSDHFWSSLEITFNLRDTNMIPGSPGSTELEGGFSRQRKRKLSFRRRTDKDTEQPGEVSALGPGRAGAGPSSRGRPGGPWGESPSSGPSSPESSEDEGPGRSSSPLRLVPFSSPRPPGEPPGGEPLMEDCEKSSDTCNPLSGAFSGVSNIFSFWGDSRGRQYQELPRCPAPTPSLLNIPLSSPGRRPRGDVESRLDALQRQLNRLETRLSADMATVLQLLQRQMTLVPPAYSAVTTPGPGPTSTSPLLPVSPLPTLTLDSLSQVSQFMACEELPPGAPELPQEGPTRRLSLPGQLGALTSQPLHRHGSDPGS
Chain of Cytochrome P450 2C9 (P11712 whole entry): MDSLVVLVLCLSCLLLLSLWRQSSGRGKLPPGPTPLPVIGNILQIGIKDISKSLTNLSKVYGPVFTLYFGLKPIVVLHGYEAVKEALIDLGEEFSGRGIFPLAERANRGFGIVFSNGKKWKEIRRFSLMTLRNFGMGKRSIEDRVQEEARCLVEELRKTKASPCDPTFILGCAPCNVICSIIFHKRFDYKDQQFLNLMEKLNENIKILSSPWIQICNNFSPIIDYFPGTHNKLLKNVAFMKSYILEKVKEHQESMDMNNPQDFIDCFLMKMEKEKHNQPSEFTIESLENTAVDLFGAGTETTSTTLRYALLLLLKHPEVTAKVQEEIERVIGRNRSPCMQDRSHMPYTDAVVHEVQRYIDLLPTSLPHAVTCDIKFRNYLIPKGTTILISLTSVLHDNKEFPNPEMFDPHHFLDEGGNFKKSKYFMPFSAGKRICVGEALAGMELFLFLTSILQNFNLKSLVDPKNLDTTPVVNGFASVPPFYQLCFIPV
Chain of Indoleamine 2,3-dioxygenase 1 (Mus musculus) (P28776 whole entry, looked up): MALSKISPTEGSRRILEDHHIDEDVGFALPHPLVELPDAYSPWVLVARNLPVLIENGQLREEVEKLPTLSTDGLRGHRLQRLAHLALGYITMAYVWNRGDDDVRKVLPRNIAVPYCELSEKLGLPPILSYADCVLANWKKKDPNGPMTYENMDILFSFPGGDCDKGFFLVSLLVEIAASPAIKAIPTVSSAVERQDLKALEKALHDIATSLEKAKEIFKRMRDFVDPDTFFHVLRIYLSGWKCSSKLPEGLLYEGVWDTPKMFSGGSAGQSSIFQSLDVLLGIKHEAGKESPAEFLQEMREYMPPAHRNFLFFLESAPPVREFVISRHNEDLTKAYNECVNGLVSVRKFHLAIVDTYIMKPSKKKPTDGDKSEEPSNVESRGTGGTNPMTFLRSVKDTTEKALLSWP

Compound `Cc1cc(C(F)(F)F)ncc1-c1ccc(C2(C(=O)Nc3ccc(F)cc3)COC2)cc1` has a solubility [1] of under 3 µM, a solubility [2] of under 3 µM and a CL free [3] of 330 mL/min/kg. It also gave a CL free [4] of 590 mL/min/kg.
Work on `CCCNC(=O)C1(c2ccc(-c3cccnc3)cc2)CCC1` yielded an IC50 [5] of 8020 nM.
`O=C(Nc1ccc(F)cc1)C1(c2ccc(-c3cnc(C(F)(F)F)cc3CO)cc2)CCC1` gave an IC50 [6] of 11900 nM, a solubility [1] of under 2 µM and a solubility [2] of under 2 µM. For the same compound, the CL free [3] was 376 mL/min/kg, the CL free [4] was 1658 mL/min/kg and the IC50 (Cytochrome P450 2C9) was 905 nM.
In the case of `CCCNC(=O)C1(c2ccc(NC(=O)c3cccc(Cl)c3)cc2)CCC1`, the half-life [7] is reported as 0.89 h, the Vdss [8] is reported as 180 L/kg and the MRT [9] is reported as 0.7 h.
With `CCCNC(=O)C1(c2ccc(-c3ccccn3)cc2)CCC1` the IC50 [5] was over 10000 nM.
Work on `O=C(Nc1ccc(C2(C(=O)Nc3ccc(F)cc3)COC2)cc1)c1cccc(Cl)c1` yielded a CL free [3] of 420 mL/min/kg and a CL free [4] of 250 mL/min/kg.
For `O=C(Nc1ccc(F)cc1)C1(c2ccc(-n3cnc(C4CC4)cc3=O)cc2)COC1`, the IC50 [6] was over 60000 nM, the solubility [1] was 140 µM (≈ 56.8 µg/mL) and the solubility [2] was 143 µM (≈ 58 µg/mL).
Work on `Cc1cc(C2CC2)ncc1-c1ccc(C2(C(=O)Nc3ccc(F)cc3)COC2)cc1` yielded an IC50 [10] of 0.08 nM, a solubility [1] of 139 µM (≈ 55.9 µg/mL) and a solubility [2] of under 3 µM. It also gave a CL free [3] of 365 mL/min/kg and a CL free [4] of 6156 mL/min/kg.
`O=C(Nc1ccc(F)cc1)C1(c2ccc(-c3ccc(C4CC4)nc3)cc2)COC1` gave an IC50 [10] of 377 nM, a solubility [1] of under 3 µM and a solubility [2] of under 3 µM. The CL free [3] was 689 mL/min/kg and the CL free [4] was 4361 mL/min/kg.
In the case of `CC(C)(O)c1cc(C(F)(F)F)ncc1-c1ccc(C2(C(=O)Nc3ccc(F)cc3)COC2)cc1`, the IC50 [5] is reported as 3 nM, the IC50 [10] is reported as 0.29 nM and the solubility [1] is reported as 124 µM (≈ 58.8 µg/mL). For the same compound, the solubility [2] was 123 µM (≈ 58.4 µg/mL), the CL free [3] was 11 mL/min/kg and the CL free [4] was 12 mL/min/kg. The IC50 (Cytochrome P450 2C9) was 8640 nM, the Ki [11] was 0.11 nM and the K [12] was 4.54 10^-3/min. For the same compound, the T1/2 [13] was 2.55 h, the Activity [14] was “Dde” and the Activity [15] was “Dde”. The IC50 [16] was 12000 nM, the IC50 [17] was 40000 nM and the IC50 [18] was 8300 nM. For the same compound, the half-life [19] was 7.4 h, the half-life [20] was 43 h and the bioavailability [21] was 62%. It also gave a bioavailability [22] of 50%, a bioavailability [23] of 27% and a bioavailability [24] of 16%.
For `CCCNC(=O)C1(c2ccc(-c3ccc(C)nc3)cc2)CCC1`, the IC50 [5] was 1170 nM.
`O=C(Nc1ccc(F)cc1)C1(c2ccc(-c3cnc(C(F)(F)F)cc3CO)cc2)COC1` gave an IC50 [5] of 2 nM, an IC50 [10] of 2.5 nM and an IC50 [6] of 22800 nM. The solubility [1] was 147 µM (≈ 65.6 µg/mL), the solubility [2] was 145 µM (≈ 64.7 µg/mL) and the CL free [3] was 19 mL/min/kg. For the same compound, the CL free [4] was under 10 mL/min/kg, the IC50 (Cytochrome P450 2C9) was 6300 nM and the Kd [25] was 0.158 nM. For the same compound, the Ki [11] was 0.15 nM.
`O=C(Nc1ccc(F)cc1)C1(c2ccc(-c3cnc(C(F)(F)F)cc3CO)cc2)CC(F)(F)C1` gave a solubility [1] of 16 µM (≈ 7.69 µg/mL), a solubility [2] of 17 µM (≈ 8.17 µg/mL) and a CL free [3] of under 6 mL/min/kg. The CL free [4] was under 12 mL/min/kg and the IC50 (Cytochrome P450 2C9) was 805 nM.
With `O=C(Nc1ccc(F)cc1)C1(c2ccc(-c3nc(C4CC4)no3)cc2)COC1` the IC50 [6] was 13800 nM, the solubility [1] was 40 µM (≈ 15.2 µg/mL) and the solubility [2] was 141 µM (≈ 53.5 µg/mL). For the same compound, the CL free [3] was 4 mL/min/kg and the CL free [4] was 971 mL/min/kg.
For `CCCNC(=O)C1(c2ccc(-c3ccncc3)cc2)CCC1`, the IC50 [5] was over 10000 nM.
